Measurements as given in ChEMBL document CHEMBL1201862, “PubChem BioAssay data set” (2004).
One block for each compound: values may come before it. Activity calls are given as the source filed them.

Experiments:
[1] = Luminescence Cell-Based Secondary HTS screen to identify cytotoxic compounds of NIH3T3 cells. [Related pubchem assays: 1885, 1968 ]; type: functional
[2] = inhibitors of Trypanosoma cruzi host-cell infection, confirmation, beta-gal luminescence, NIH3T3 host cells (AID 2630); type: functional, cell-based; settings: Mus musculus
[3] = cytotoxicity toward NIH3T3 fibroblasts, dose response, counter-screen, cell-based, ATP luminescence, mouse fibroblasts (AID 2010); type: functional;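 note: cells exposed to compound for about 90 hours before reading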
[4] = inhibitors of intracellular T. cruzi replication, confirmation, NIH3T3 host cells, beta-gal luminescence (AID 2044); type: functional, cell-based;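 note: intracellular parasites grown in NIH/3T3 mouse fibroblasts as host cells; luminescent beta-galactosidase reporter signal from transgenic T. cruzi replicating inside host cells; inhibitors lower the luminescence signal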
[5] = Luminescence Cell-Based/Microorganism Confirmation at Dose of Inhibitors of Trypanosoma cruzi Infection. [Related pubchem assays: 1885, 1968 ]; type: functional
[6] = blockers of SFLLRN-triggered platelet ATP secretion – cell-based, human platelets, luminescence, dry powder, dose response (AID 493100); type: functional
[7] = Luminescence Cell-Based Dose Response Follow up to Identify Inhibitors of Platelet Dense Granule Release. [Related pubchem assays (depositor defined):AID1663, AID1678, AID1889, AID2519]; type: functional
Candida albicans [8] = assay: fluconazole resistance reversal in C. albicans, dose response, CaCi-2 strain, Alamar Blue, dry powder, set 4 (AID 488943); type: functional, organism-based
Candida albicans [9] = assay: Candida albicans growth inhibition, agent alone, dose response, counter-screen for reversing antifungal drug resistance, CaCi-2 strain, no fluconazole, dry powder, set 4 (AID 488932); type: functional, organism-based
Candida albicans [10] = assay: reversal of fluconazole resistance in C. albicans, dose response, CaCi-2 strain, Alamar Blue, dry powder, set 3 (AID 488907); type: functional, organism-based
Candida albicans [11] = assay: growth inhibition of resistant C. albicans, dose response, CaCi-8 strain, fluconazole, dry powder, set 4 (AID 488950); type: functional, organism-based
[12] = target: T1, Tyrosine-protein phosphatase non-receptor type 7 (Homo sapiens, UniProt P35236); type: functional
T1 sequence (P35236 whole entry): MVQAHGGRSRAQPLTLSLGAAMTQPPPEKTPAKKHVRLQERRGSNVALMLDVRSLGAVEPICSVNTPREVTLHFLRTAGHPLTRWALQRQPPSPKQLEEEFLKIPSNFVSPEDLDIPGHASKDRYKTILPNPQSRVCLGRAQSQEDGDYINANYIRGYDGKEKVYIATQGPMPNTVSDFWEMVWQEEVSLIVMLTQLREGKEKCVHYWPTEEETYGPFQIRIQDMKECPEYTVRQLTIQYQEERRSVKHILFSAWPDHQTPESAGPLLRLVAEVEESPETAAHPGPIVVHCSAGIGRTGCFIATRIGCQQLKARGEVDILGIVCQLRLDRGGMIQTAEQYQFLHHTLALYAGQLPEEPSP

[13] = target: Glyceraldehyde-3-phosphate dehydrogenase (Homo sapiens, UniProt P04406)
[14] = target: T2, Dual specificity protein phosphatase 6 (Rattus norvegicus, UniProt Q64346); type: functional
T2 sequence (Q64346 whole entry): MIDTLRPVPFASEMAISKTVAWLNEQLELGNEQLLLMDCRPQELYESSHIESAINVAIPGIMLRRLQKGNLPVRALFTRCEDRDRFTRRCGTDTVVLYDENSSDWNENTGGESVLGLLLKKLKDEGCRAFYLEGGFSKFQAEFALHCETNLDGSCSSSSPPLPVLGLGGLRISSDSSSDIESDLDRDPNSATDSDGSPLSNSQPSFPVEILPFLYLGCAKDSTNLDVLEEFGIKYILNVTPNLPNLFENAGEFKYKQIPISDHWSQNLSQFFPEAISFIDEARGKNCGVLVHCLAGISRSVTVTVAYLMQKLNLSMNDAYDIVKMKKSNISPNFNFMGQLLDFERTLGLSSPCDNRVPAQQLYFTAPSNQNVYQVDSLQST

[15] = target: T2, Dual specificity protein phosphatase 6
[16] = target: Nuclear receptor subfamily 0 group B member 1 (Homo sapiens, UniProt P51843); assay: Luminescence-based cell-based high throughput dose response assay for inhibitors of the orphan nuclear receptor subfamily 0, group B, member 1 (DAX1; NR0B1). [Related pubchem assays (depositor defined):AID504766, AID504790]; type: functional
HEK293 = assay: cells; type: functional, cell-based; settings: Homo sapiens

Chain of Nuclear receptor subfamily 0 group B member 1 (P51843 whole entry): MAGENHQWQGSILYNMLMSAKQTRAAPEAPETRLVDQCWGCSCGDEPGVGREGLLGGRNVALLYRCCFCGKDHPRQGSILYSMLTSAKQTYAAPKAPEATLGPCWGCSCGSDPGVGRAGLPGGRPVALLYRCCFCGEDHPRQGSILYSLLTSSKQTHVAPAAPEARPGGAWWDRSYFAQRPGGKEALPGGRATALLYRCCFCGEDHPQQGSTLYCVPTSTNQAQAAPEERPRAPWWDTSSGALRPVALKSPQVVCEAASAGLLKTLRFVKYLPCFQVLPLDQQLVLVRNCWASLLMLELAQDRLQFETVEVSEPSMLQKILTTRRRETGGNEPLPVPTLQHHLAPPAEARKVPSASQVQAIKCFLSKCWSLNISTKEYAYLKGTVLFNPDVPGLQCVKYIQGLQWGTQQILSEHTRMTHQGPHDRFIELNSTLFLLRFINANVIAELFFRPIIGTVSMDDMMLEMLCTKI
Chain of Glyceraldehyde-3-phosphate dehydrogenase (P04406 whole entry): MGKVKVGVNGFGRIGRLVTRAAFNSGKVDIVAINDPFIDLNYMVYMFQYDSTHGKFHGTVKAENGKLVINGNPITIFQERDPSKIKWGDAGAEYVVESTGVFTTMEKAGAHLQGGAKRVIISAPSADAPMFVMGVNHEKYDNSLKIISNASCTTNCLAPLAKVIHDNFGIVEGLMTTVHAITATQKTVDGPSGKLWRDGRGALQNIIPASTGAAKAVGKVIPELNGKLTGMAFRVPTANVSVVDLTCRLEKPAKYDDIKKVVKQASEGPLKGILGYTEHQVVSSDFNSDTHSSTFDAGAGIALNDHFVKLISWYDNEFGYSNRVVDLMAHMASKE

SMILES: CC(C)=CCCC(C)CN(C)CCc1ccccn1 (stereo not drawn)
EC50 [1]: > 195 µM (not active)
EC50 [2]: 27 nM (active)
EC50 [3]: > 60 µM (not active)
EC50 (cells): 83 nM (active)
EC50 [4]: < 100 nM (active)
EC50 [5]: 27 nM (active)

SMILES: C/C(=N/NC(=O)C1CCCC1)c1ccc(NC(=O)C(F)(F)F)cc1
AC50 [6]: 12.3 µM (active)
EC50 [7]: 802 nM (active)

SMILES: Cn1ccnc1N1CCN(C(=O)c2ccc(Cl)cc2)CC1
AC50 (Candida albicans [8]): 8.2 µM (active)
AC50 (Candida albicans [9]): > 260 µM (inactive)
AC50 (Candida albicans [10]): 587 nM (active)
AC50 (Candida albicans [11]): 224 µM (active)

IC50 [12]: 15.2 µM (active)
IC50 [13]: > 100 µM (not active)
IC50 [14]: > 100 µM (inactive)
IC50 [15]: > 100 µM (inactive)
SMILES: CCCCCCCCCCCCCCCCCCC#CCCCCCCCCCCC(=O)O

SMILES: CCCCNC(=O)Nc1nc2ccccc2s1
IC50 [16]: > 67.5 µM (inactive)
IC50 (HEK293): > 67.5 µM (inactive)
